Measurements: US10118947B2, “Modulation of structured polypeptide specificity” (BICYCLE THERAPEUTICS LIMITED, priority 2013, dated 2018)
Where two headings read alike, the source gives them in different places. Numbered stars: 1 amine (or outer) side, 2 acyl side, 3 side chain; on linkers, the order of the positions; unused ones are H or OH. Bridge positions count the residues as written; N and C are the ends. Square brackets hold non-standard residues; d marks the D form. Peptide text beside a SMILES is read from it. Gly(N-CH2CH2-imidazol-4-yl) = O=C(O)CNCCc1c[nH]cn1; Ala(4-thiazolyl) = N[C@@H](Cc1cscn1)C(=O)O; TBMB = c1c(C[*:1])cc(C[*:3])cc1C[*:2]; 2Pal = N[C@@H](Cc1ccccn1)C(=O)O; 3Pal = N[C@@H](Cc1cccnc1)C(=O)O; 4Pal = N[C@@H](Cc1ccncc1)C(=O)O; 2Thi = N[C@@H](Cc1cccs1)C(=O)O; β3hQ = NC(=O)CC[C@H](N)CC(=O)O; Chg = N[C@H](C(=O)O)C1CCCCC1; NMeS = CN[C@@H](CO)C(=O)O

Target: T1, human plasma Kallikrein (Homo sapiens, UniProt P03952)
T1 construct: purchased Stratech, UK
Test: Functional enzyme inhibition assay with fluorogenic substrate Z-PheArg-AMC, human plasma Kallikrein
Assay type: biochemical
Protocol: Functional enzyme assays were conducted in 10 mM Tris HCl, 150 mM NaCl, 10 mM MgCl2, 1 mM CaCl2) and 1 mg/mL BSA (all Sigma UK) pH7.4 at 25° C. in solid black 96 well plates. Briefly 26.5 pM human plasma Kallikrein (purchased from Stratech, UK) or 500 pM rat plasma Kallikrein (expressed and purified in house) were incubated in the absence or presence of increasing concentrations of test peptide for 15 minutes before addition of the fluorogenic substrate Z-PheArg-AMC (Enzo Lifesciences UK) to a final assay concentration of 100 μM in 4% DMSO. Release of AMC was measured using a Pherastar FS (BMG Labtech), excitation 360 nm, emission 460 nm. The rate of the linear phase of the reaction, typically 5 to 45 minutes, was calculated in MARS data analysis software (BMG labtech). The rate was then used to calculate the IC50 and Ki in Prism (GraphPad). A four parameter inhibition non-linear regression equation was used to calculate the IC50.
Peptides were dissolved as the TFA-salts in their powder form, and stock solutions were usually prepared in water. All solutions were centrifuged and filtered ([…] syringe filters) prior absorption measurement at 280 nm. […] For peptides containing non-natural amino acids with suspected chromophoric properties (i.e. NorHar, 4PhenylPro, 3Pal, 4Pal, Tic, 4GuanPhe, 4,4-BPAI, 3,3-DPA, 1NAI, 2NAI, 4BenzylPro, Ind) concentrations were determined by weighing the powder and dissolving the peptide in a defined quantity of water.

[1] = Table 24b, residue 7 modifications, read-out: Ki
[2] = Table 24b, ratio of Ki to wild type
[3] = Table 3c, D-Alanine scan in Loop2, read-out: Ki
[4] = Table 3c, ratio of Ki to wild type

T1 sequence (P03952 20-638): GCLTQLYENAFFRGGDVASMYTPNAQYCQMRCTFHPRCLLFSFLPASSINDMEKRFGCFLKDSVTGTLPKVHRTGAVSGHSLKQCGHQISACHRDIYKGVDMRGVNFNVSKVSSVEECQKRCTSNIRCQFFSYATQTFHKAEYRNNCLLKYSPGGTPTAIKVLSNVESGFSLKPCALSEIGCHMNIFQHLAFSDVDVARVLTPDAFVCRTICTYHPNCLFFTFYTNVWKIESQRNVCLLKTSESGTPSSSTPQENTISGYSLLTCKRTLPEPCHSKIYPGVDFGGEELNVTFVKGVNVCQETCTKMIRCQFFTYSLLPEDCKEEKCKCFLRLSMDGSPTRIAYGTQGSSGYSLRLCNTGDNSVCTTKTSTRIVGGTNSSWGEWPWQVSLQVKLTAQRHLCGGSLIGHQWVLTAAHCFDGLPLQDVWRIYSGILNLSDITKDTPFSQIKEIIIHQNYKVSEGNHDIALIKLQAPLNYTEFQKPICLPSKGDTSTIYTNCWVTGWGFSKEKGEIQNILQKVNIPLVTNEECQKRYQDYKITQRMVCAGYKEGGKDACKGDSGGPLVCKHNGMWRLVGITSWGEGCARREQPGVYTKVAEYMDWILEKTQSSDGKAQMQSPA

CC(=O)N[C@H]1CSCc2cc3cc(c2)CSC[C@H](NC(=O)[C@H](CCCNC(=N)N)NC(=O)[C@H](Cc2ccc(O)cc2)NC(=O)[C@@H]2CCCN2C(=O)[C@H](Cc2ccccc2)NC(=O)[C@H](CO)NC1=O)C(=O)N[C@@H](CC(C)C)C(=O)N[C@@H](Cc1cccnc1)C(=O)N[C@@H](CCC(N)=O)C(=O)N[C@@H](CC(=O)O)C(=O)N[C@@H](CC(C)C)C(=O)N[C@H](C(N)=O)CSC3 [Ac-(06-34-18) Phe2 Tyr4 3Pal7] (Ac-CSFPYRCL[3Pal]QDLC-NH2; linker 1-7-13 via TBMB)
Ki [1]: 130 nM
F (Kivar/KiWT) [2]: 308

CC(=O)N[C@H]1CSCc2cc3cc(c2)CSC[C@H](NC(=O)[C@H](CCCNC(=N)N)NC(=O)[C@H](Cc2ccc(O)cc2)NC(=O)[C@@H]2CCCN2C(=O)[C@H](Cc2ccccc2)NC(=O)[C@H](CO)NC1=O)C(=O)N[C@@H](CC(C)C)C(=O)N[C@@H](Cc1c[nH]cn1)C(=O)N[C@@H](CCC(N)=O)C(=O)N[C@@H](CC(=O)O)C(=O)N[C@H](C)C(=O)N[C@H](C(N)=O)CSC3 [Ac-(06-34-18) Phe2 Tyr4 D-Ala10] (Ac-CSFPYRCLHQD[dA]C-NH2; linker 1-7-13 via TBMB)
Ki [3]: 572 nM
F (Kivar/KiWT) [4]: 1362

CC(=O)N[C@H]1CSCc2cc3cc(c2)CSC[C@H](NC(=O)[C@H](CCCNC(=N)N)NC(=O)[C@H](Cc2ccc(O)cc2)NC(=O)[C@@H]2CCCN2C(=O)[C@H](Cc2ccccc2)NC(=O)[C@H](CO)NC1=O)C(=O)N[C@@H](CC(C)C)C(=O)N[C@@H](Cc1c[nH]cn1)C(=O)N[C@@H](CCC(N)=O)C(=O)N[C@H](C)C(=O)N[C@@H](CC(C)C)C(=O)N[C@H](C(N)=O)CSC3 [Ac-(06-34-18) Phe2 Tyr4 D-Ala9] (Ac-CSFPYRCLHQ[dA]LC-NH2; linker 1-7-13 via TBMB)
Ki [3]: 19.9 nM
F (Kivar/KiWT) [4]: 47

CC(=O)N[C@H]1CSCc2cc3cc(c2)CSC[C@H](NC(=O)[C@H](CCCNC(=N)N)NC(=O)[C@H](Cc2ccc(O)cc2)NC(=O)[C@@H]2CCCN2C(=O)[C@H](Cc2ccccc2)NC(=O)[C@H](CO)NC1=O)C(=O)N[C@@H](CC(C)C)C(=O)N[C@@H](Cc1ccncc1)C(=O)N[C@@H](CCC(N)=O)C(=O)N[C@@H](CC(=O)O)C(=O)N[C@@H](CC(C)C)C(=O)N[C@H](C(N)=O)CSC3 [Ac-(06-34-18) Phe2 Tyr4 4Pal7] (Ac-CSFPYRCL[4Pal]QDLC-NH2; linker 1-7-13 via TBMB)
Ki [1]: 79 nM
F (Kivar/KiWT) [2]: 187

CC(=O)N[C@H]1CSCc2cc3cc(c2)CSC[C@H](NC(=O)[C@H](CCCNC(=N)N)NC(=O)[C@H](Cc2ccc(O)cc2)NC(=O)[C@@H]2CCCN2C(=O)[C@H](Cc2ccccc2)NC(=O)[C@H](CO)NC1=O)C(=O)N[C@@H](CC(C)C)C(=O)N[C@@H](Cc1cccs1)C(=O)N[C@@H](CCC(N)=O)C(=O)N[C@@H](CC(=O)O)C(=O)N[C@@H](CC(C)C)C(=O)N[C@H](C(N)=O)CSC3 [Ac-(06-34-18) Phe2 Tyr4 Thi7] (Ac-CSFPYRCL[2Thi]QDLC-NH2; linker 1-7-13 via TBMB)
Ki [1]: 34 nM
F (Kivar/KiWT) [2]: 80

CC(=O)N[C@H]1CSCc2cc3cc(c2)CSC[C@H](NC(=O)[C@H](CCCNC(=N)N)NC(=O)[C@H](Cc2ccc(O)cc2)NC(=O)[C@@H]2CCCN2C(=O)[C@H](Cc2ccccc2)NC(=O)[C@H](CO)NC1=O)C(=O)N[C@@H](CC(C)C)C(=O)N[C@@H](Cc1ccccn1)C(=O)N[C@@H](CCC(N)=O)C(=O)N[C@@H](CC(=O)O)C(=O)N[C@@H](CC(C)C)C(=O)N[C@H](C(N)=O)CSC3 [Ac-(06-34-18) Phe2 Tyr4 2Pal7] (Ac-CSFPYRCL[2Pal]QDLC-NH2; linker 1-7-13 via TBMB)
Ki [1]: 53 nM
F (Kivar/KiWT) [2]: 126

CC(=O)N[C@H]1CSCc2cc3cc(c2)CSC[C@H](NC(=O)[C@H](CCCNC(=N)N)NC(=O)[C@H](C)NC(=O)[C@@H]2CCCN2C(=O)[C@H](Cc2c[nH]c4ccccc24)NC(=O)[C@H](CO)NC1=O)C(=O)N[C@@H](C1CCCCC1)C(=O)N[C@@H](Cc1c[nH]cn1)C(=O)N[C@@H](CCC(N)=O)C(=O)N[C@@H](CC(=O)O)C(=O)N[C@@H](CC(C)C)C(=O)N[C@H](C(N)=O)CSC3 [Ac-(06-34-18) Chg6] (Ac-CSWPARC[Chg]HQDLC-NH2; linker 1-7-13 via TBMB)
Ki (Table 24a, residue 6 modification in the context of Ac-(06-34-18), read-out: Ki (nM) Ac-(06-34-18)): 0.13 nM

CC(=O)N[C@H]1CSCc2cc3cc(c2)CSC[C@H](NC(=O)[C@H](CCCNC(=N)N)NC(=O)[C@H](Cc2ccc(O)cc2)NC(=O)[C@@H]2CCCN2C(=O)[C@H](Cc2ccccc2)NC(=O)[C@H](CO)NC1=O)C(=O)N[C@@H](CC(C)C)C(=O)N[C@@H](Cc1c[nH]cn1)C(=O)N[C@@H](CCC(N)=O)CC(=O)N[C@@H](CC(=O)O)C(=O)N[C@@H](CC(C)C)C(=O)N[C@H](C(N)=O)CSC3 [Ac-(06-34-18) Phe2 Tyr4 bHGln8] (Ac-CSFPYRCLH[β3hQ]DLC-NH2; linker 1-7-13 via TBMB)
Ki (Table 24c, residue 8 modifications, read-out: Ki): 16.8 nM
F (Kivar/KiWT) (Table 24c, ratio of Ki to wild type): 40

CC(C)C[C@@H]1NC(=O)[C@H](CC(=O)O)NC(=O)[C@H](CCC(N)=O)NC(=O)[C@H](Cc2c[nH]cn2)NC(=O)[C@H](CC(C)C)NC(=O)[C@@H]2CSCc3cc(cc(c3)CSC[C@H](NC(=O)[C@H](C)N)C(=O)N(C)[C@@H](CO)C(=O)N[C@@H](Cc3c[nH]c4ccccc34)C(=O)N3CCC[C@H]3C(=O)N[C@@H](C)C(=O)N[C@@H](CCCNC(=N)N)C(=O)N2)CSC[C@@H](C(=O)N[C@@H](C)C(N)=O)NC1=O [06-34-18-N-MeSer1] (H-AC[NMeS]WPARCLHQDLCA-NH2; linker 2-8-14 via TBMB)
Ki (Ki human PK (nM), Table 6): 0.56 nM

CC(=O)N[C@H]1CSCc2cc3cc(c2)CSC[C@H](NC(=O)[C@H](CCCNC(=N)N)NC(=O)[C@H](Cc2ccc(O)cc2)NC(=O)[C@@H]2CCCN2C(=O)[C@H](Cc2ccccc2)NC(=O)[C@H](CO)NC1=O)C(=O)N[C@@H](CC(C)C)C(=O)N(CCc1c[nH]cn1)CC(=O)N[C@@H](CCC(N)=O)C(=O)N[C@@H](CC(=O)O)C(=O)N[C@@H](CC(C)C)C(=O)N[C@H](C(N)=O)CSC3 [Ac-(06-34-18) Phe2 Tyr4 N-His7] (Ac-CSFPYRCL[Gly(N-CH2CH2-imidazol-4-yl)]QDLC-NH2; linker 1-7-13 via TBMB)
F (Kivar/KiWT) (Table 25b, fold change of Ki of variant compared to WT): 519
Ki (Table 25b, peptide backbone modifications in Loop2, human plasma kallikrein, read-out: Ki): 218 nM

CC(=O)N[C@H]1CSCc2cc3cc(c2)CSC[C@H](NC(=O)[C@@H](CCCNC(=N)N)NC(=O)[C@H](C)NC(=O)[C@@H]2CCCN2C(=O)[C@H](Cc2c[nH]c4ccccc24)NC(=O)[C@H](CO)NC1=O)C(=O)N[C@@H](CC(C)C)C(=O)N[C@@H](Cc1c[nH]cn1)C(=O)N[C@@H](CCC(N)=O)C(=O)N[C@@H](CC(=O)O)C(=O)N[C@@H](CC(C)C)C(=O)N[C@H](C(N)=O)CSC3 [Ac-(06-34-18) D-Arg5]
reduction in potency/affinity compared to wildtype: 300 fold

CC(=O)N[C@H]1CSCc2cc3cc(c2)CSC[C@H](NC(=O)[C@H](CCCNC(=N)N(C)C)NC(=O)[C@H](C)NC(=O)[C@@H]2CCCN2C(=O)[C@H](Cc2c[nH]c4ccccc24)NC(=O)[C@H](CO)NC1=O)C(=O)N[C@@H](CC(C)C)C(=O)N[C@@H](Cc1c[nH]cn1)C(=O)N[C@@H](CCC(N)=O)C(=O)N[C@@H](CC(=O)O)C(=O)N[C@@H](CC(C)C)C(=O)N[C@H](C(N)=O)CSC3 [Ac-(06-34-18) NDMA5]
Ki (Table 11, read-out: Ki (nM) (human kallikrein)): 510 nM

CC(=O)N[C@H]1CSCc2cc3cc(c2)CSC[C@H](NC(=O)[C@H](CCCNC(=N)N)NC(=O)[C@H](C)NC(=O)[C@@H]2CCCN2C(=O)[C@H](Cc2c[nH]c4ccccc24)NC(=O)[C@H](CO)NC1=O)C(=O)N[C@H](C)C(=O)N[C@@H](Cc1c[nH]cn1)C(=O)N[C@@H](CCC(N)=O)C(=O)N[C@@H](CC(=O)O)C(=O)N[C@@H](CC(C)C)C(=O)N[C@H](C(N)=O)CSC3 [Ac-(06-34-18) D-Ala6] (Ac-CSWPARC[dA]HQDLC-NH2; linker 1-7-13 via TBMB)
Ki [3]: 1040 nM
F (Kivar/KiWT) [4]: 2469

CC(=O)N[C@H]1CSCc2cc3cc(c2)CSC[C@H](NC(=O)[C@H](CCCNC(=N)N)NC(=O)[C@H](C)NC(=O)[C@@H]2CCCN2C(=O)[C@@H](Cc2c[nH]c4ccccc24)NC(=O)[C@H](CO)NC1=O)C(=O)N[C@@H](CC(C)C)C(=O)N[C@@H](Cc1c[nH]cn1)C(=O)N[C@@H](CCC(N)=O)C(=O)N[C@@H](CC(=O)O)C(=O)N[C@@H](CC(C)C)C(=O)N[C@H](C(N)=O)CSC3 [Ac-(06-34-18) D-Trp2]
reduction in potency/affinity compared to wildtype: 45000 fold

CC(=O)N[C@H]1CSCc2cc3cc(c2)CSC[C@H](NC(=O)[C@H](CCCNC(=N)N)NC(=O)[C@H](Cc2ccc(O)cc2)NC(=O)[C@@H]2CCCN2C(=O)[C@H](Cc2ccccc2)NC(=O)[C@H](CO)NC1=O)C(=O)N[C@@H](CC(C)C)C(=O)N[C@@H](Cc1cscn1)C(=O)N[C@@H](CCC(N)=O)C(=O)N[C@@H](CC(=O)O)C(=O)N[C@@H](CC(C)C)C(=O)N[C@H](C(N)=O)CSC3 [Ac-(06-34-18) Phe2 Tyr4 4ThiAz7] (Ac-CSFPYRCL[Ala(4-thiazolyl)]QDLC-NH2; linker 1-7-13 via TBMB)
Ki [1]: 14 nM
F (Kivar/KiWT) [2]: 33
